According to ChEMBL document CHEMBL4190189, “Exploring Jolkinol D Derivatives To Overcome Multidrug Resistance in Cancer” (J Nat Prod, 2017):
Active and inactive are the calls of the source. No cut-off for these calls is given here.

What was measured:
L5178Y [1] = test: Cytotoxicity against mouse L5178Y cells assessed as reduction in cell viability after 72 hrs by MTT assay; assay type: cell-based
L5178Y [2] = test: Cytotoxicity against mouse L5178Y cells transfected with human ABCB1 assessed as reduction in cell viability after 72 hrs by MTT assay; assay type: functional, cell-based
[3] = molecular target: T1, ATP-dependent translocase ABCB1 (Homo sapiens, UniProt P08183); test: Modulation of human ABCB1 expressed in mouse L5178Y cells assessed as fluorescence activity ratio at 2 uM pretreated for 10 mins followed by rhodamine-123 addition measured after 20 mins by flow cytometry (reference value: 0.87); assay type: cell-based
[4] = molecular target: T1, ATP-dependent translocase ABCB1; test: Modulation of human ABCB1 expressed in mouse L5178Y cells assessed as fluorescence activity ratio at 20 uM pretreated for 10 mins followed by rhodamine-123 addition measured after 20 mins by flow cytometry (reference value: 0.87); assay type: cell-based
[5] = molecular target: T1, ATP-dependent translocase ABCB1; test: Inhibition of human ABCB1 expressed in mouse L5178Y cells assessed as potentiation of doxorubicin-induced cytotoxicity by measuring combination index at 50:1 compound to doxorubicin ratio after 48 hrs by MTT assay; assay type: cell-based
[6] = Resistance ratio of IC50 for human EPG85-257P cells to IC50 for human EPG85-257RDB cells; assay type: functional
[7] = molecular target: T1, ATP-dependent translocase ABCB1; test: Inhibition of human ABCB1 expressed in mouse L5178Y cells assessed as potentiation of doxorubicin-induced cytotoxicity by measuring combination index at 25:1 compound to doxorubicin ratio after 48 hrs by MTT assay; assay type: cell-based
[8] = molecular target: T1, ATP-dependent translocase ABCB1; test: Inhibition of human ABCB1 expressed in mouse L5178Y cells assessed as potentiation of doxorubicin-induced cytotoxicity by measuring combination index at 18:1 compound to doxorubicin ratio after 48 hrs by MTT assay; assay type: cell-based
[9] = Cytotoxicity against human EPG85-257RNOV cells assessed as reduction in cell viability after 5 days by SRB assay; assay type: functional, cell-based; conditions: 120 h
[10] = Cytotoxicity against human EPG85-257P cells assessed as reduction in cell viability after 5 days by SRB assay; assay type: cell-based; conditions: 120 h
[11] = Cytotoxicity against human EPG85-257RDB cells assessed as reduction in cell viability after 5 days by SRB assay; assay type: functional, cell-based; conditions: 120 h
[12] = Induction of apoptosis in human EPG85-257P cells at 30 uM after 72 hrs by annexin-V/propidium iodide staining based flow cytometric method relative to control; assay type: cell-based
Homo sapiens [13] = organism: Homo sapiens; test: Induction of apoptosis in human EPG85-257RDB cells at 30 uM after 72 hrs by annexin-V/propidium iodide staining based flow cytometric method relative to control; assay type: functional
[14] = Induction of apoptosis in human EPG85-257P cells assessed as caspase-3 activation at 30 uM after 72 hrs by flow cytometric method relative to control; assay type: cell-based; conditions: 72 h, 30 µM
Homo sapiens [15] = organism: Homo sapiens; test: Induction of apoptosis in human EPG85-257RDB cells assessed as caspase-3 activation at 30 uM after 72 hrs by flow cytometric method relative to control; assay type: functional
Homo sapiens [16] = organism: Homo sapiens; test: Induction of apoptosis in human EPG85-257RNOV cells assessed as caspase-3 activation at 30 uM after 72 hrs by flow cytometric method relative to control; assay type: functional
Homo sapiens [17] = organism: Homo sapiens; test: Induction of apoptosis in human EPG85-257RNOV cells at 30 uM after 72 hrs by annexin-V/propidium iodide staining based flow cytometric method relative to control; assay type: functional
[18] = molecular target: T1, ATP-dependent translocase ABCB1; test: Inhibition of human ABCB1 expressed in mouse L5178Y cells assessed as potentiation of doxorubicin-induced cytotoxicity by measuring combination index at 10:1 compound to doxorubicin ratio after 48 hrs by MTT assay; assay type: cell-based
[19] = molecular target: T1, ATP-dependent translocase ABCB1; test: Inhibition of human ABCB1 ATPase activity expressed in Sf9 insect cell membranes assessed as reduction in verapamil-stimulated vanadate-sensitive ATPase activity at 50 to 100 uM measured after 10 mins by colorimetric method
[20] = molecular target: ABCB1 (P-glycoprotein) ATPase (Homo sapiens, UniProt P08183); test: Inhibition of human ABCB1 ATPase activity expressed in Sf9 insect cell membranes assessed as reduction in verapamil-stimulated vanadate-sensitive ATPase activity at 1.56 to 25 uM measured after 10 mins by colorimetric method relative to control; conditions: Sf9 insect cell membranes expressing human ABCB1, probe verapamil (ATPase stimulator)
[21] = molecular target: T1, ATP-dependent translocase ABCB1; test: Inhibition of human ABCB1 expressed in mouse L5178Y cells assessed as potentiation of doxorubicin-induced cytotoxicity by measuring combination index at 15:1 compound to doxorubicin ratio after 48 hrs by MTT assay; assay type: cell-based
[22] = Cytotoxicity against human EPP85-181P cells assessed as reduction in cell viability after 5 days by SRB assay; assay type: cell-based; conditions: 120 h
[23] = Cytotoxicity against human EPP85-181RNOV cells assessed as reduction in cell viability after 5 days by SRB assay; assay type: functional, cell-based; conditions: 120 h
[24] = Cytotoxicity against human EPP85-181RDB cells assessed as reduction in cell viability after 5 days by SRB assay; assay type: functional, cell-based; conditions: 120 h
[25] = Induction of apoptosis in human EPP85-181RNOV cells at 30 uM after 72 hrs by annexin-V/propidium iodide staining based flow cytometric method relative to control; assay type: functional
[26] = Induction of apoptosis in human EPP85-181RDB cells at 30 uM after 72 hrs by annexin-V/propidium iodide staining based flow cytometric method relative to control; assay type: functional
[27] = Resistance ratio of IC50 for human EPP85-181P cells to IC50 for human EPP85-181RNOV cells; assay type: functional
[28] = Resistance ratio of IC50 for human EPP85-181P cells to IC50 for human EPP85-181RDB cells; assay type: functional

T1 sequence (P08183 whole entry): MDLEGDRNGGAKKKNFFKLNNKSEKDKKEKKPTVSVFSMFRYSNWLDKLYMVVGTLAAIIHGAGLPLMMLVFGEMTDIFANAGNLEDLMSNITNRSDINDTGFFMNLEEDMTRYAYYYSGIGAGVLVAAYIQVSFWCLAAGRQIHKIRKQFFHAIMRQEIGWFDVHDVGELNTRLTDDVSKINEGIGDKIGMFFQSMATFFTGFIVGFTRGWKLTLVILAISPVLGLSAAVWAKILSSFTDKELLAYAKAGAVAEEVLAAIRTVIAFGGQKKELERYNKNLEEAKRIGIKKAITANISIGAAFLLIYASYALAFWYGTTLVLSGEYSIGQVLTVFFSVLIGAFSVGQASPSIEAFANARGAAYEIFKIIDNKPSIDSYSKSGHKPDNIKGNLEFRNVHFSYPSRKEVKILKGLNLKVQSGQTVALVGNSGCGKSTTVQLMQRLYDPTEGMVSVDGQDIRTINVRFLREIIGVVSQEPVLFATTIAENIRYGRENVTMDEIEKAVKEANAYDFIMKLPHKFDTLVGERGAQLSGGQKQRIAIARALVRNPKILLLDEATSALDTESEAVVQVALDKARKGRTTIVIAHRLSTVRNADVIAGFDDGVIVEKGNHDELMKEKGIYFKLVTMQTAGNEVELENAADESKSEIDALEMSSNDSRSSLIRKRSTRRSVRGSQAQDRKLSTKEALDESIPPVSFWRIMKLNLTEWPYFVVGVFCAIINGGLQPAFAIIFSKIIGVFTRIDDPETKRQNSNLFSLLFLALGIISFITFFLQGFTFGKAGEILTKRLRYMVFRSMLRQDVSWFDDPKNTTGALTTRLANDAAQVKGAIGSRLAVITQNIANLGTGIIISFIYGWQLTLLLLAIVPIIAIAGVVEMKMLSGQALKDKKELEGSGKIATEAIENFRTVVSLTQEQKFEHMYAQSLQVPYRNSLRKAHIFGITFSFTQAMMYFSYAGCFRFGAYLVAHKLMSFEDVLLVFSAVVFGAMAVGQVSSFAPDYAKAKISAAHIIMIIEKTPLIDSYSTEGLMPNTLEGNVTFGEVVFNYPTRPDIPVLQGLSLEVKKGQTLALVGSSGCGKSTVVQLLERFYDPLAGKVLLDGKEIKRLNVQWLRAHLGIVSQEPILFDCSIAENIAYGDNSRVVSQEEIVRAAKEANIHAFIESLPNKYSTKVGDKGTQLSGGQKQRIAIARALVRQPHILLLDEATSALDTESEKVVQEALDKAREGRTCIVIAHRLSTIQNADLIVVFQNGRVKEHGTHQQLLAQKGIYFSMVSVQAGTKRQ
Sequence of ABCB1 (P-glycoprotein) ATPase (P08183 whole entry): as above

Row | Compound | Ratio [3] | Ratio [4] | IC50 (L5178Y [1]) [µM] | IC50 (L5178Y [2]) [µM] | Ratio IC50 [6] | IC50 [9] [µM] | other results
1 | CC(=O)O[C@]12C[C@H](C)[C@H](OC(=O)Oc3ccccc3)[C@@H]1/C=C(/C)CC[C@H]1[C@@H](/C=C(\C)C2=O)C1(C)C | 10.8 | 19.5 | > 19 | > 19 | 0.4 | 5.55 | CI [8]: 0.5; IC50 [10]: 6.24 µM; IC50 [11]: 2340 nM; Activity [12]: Toxic; Activity (Homo sapiens [13]): Active; Activity [14]: Toxic; Activity (Homo sapiens [15]): Active; Activity (Homo sapiens [16]): Active; Activity (Homo sapiens [17]): Active
2 | COc1ccccc1C(=O)O[C@H]1[C@@H](C)C[C@]2(OC(C)=O)C(=O)/C(C)=C/[C@@H]3[C@H](CC/C(C)=C\[C@@H]12)C3(C)C | 33.3 | 39.6 | > 19 | > 19 | 0.2 | – | CI [18]: 0.09; inhibition (INH) [19]: Active; inhibition at 10 min [20]: 100%
3 | C/C1=C/[C@H]2[C@@H](OC(=O)c3ccc(C(F)(F)F)cc3)[C@@H](C)C[C@]2(O)C(=O)/C(C)=C/[C@@H]2[C@H](CC1)C2(C)C | 3 | 9.9 | > 19 | > 80 | – | – | Ratio IC50 [28]: 0.4

Further lines, with some results ahead:

Row | Ratio [3] | Ratio [4] | Compound | IC50 (L5178Y [1]) [µM] | IC50 (L5178Y [2]) [µM] | Ratio IC50 [6] | IC50 [9] [µM] | other results
4 | 28.6 | 41.5 | CC(=O)O[C@]12C[C@H](C)[C@H](OC(=O)/C=C/c3ccccc3)[C@@H]1/C=C(/C)CC[C@H]1[C@@H](/C=C(\C)C2=O)C1(C)C | > 19 | > 19 | 0.2 | – | CI [5]: 1.13
5 | 26.1 | 36.4 | COc1cccc(C(=O)O[C@H]2[C@@H](C)C[C@]3(OC(C)=O)C(=O)/C(C)=C/[C@@H]4[C@H](CC/C(C)=C\[C@@H]23)C4(C)C)c1 | > 19 | > 19 | 0.3 | – | CI [7]: 0.84
6 | 2.2 | 18 | CC(=O)O[C@]12C[C@H](C)[C@H](OC(=O)c3cccc(C)c3)[C@@H]1/C=C(/C)CC[C@H]1[C@@H](/C=C(\C)C2=O)C1(C)C | > 19 | > 80 | – | < 10 | –
7 | 12.6 | 29 | CC(=O)O[C@]12C[C@H](C)[C@H](OC(=O)C34CC5CC(CC(C5)C3)C4)[C@@H]1/C=C(/C)CC[C@H]1[C@@H](/C=C(\C)C2=O)C1(C)C | > 19 | > 19 | – | < 10 | CI [21]: 1.11; IC50 [22]: 8.61 µM; IC50 [23]: 6.63 µM; IC50 [24]: 5.86 µM; fold change (FC) [25]: 5; fold change (FC) [26]: 17
8 | 4.8 | 19 | C/C1=C/[C@H]2[C@@H](OC(=O)c3ccc(-c4ccccc4)cc3)[C@@H](C)C[C@]2(O)C(=O)/C(C)=C/[C@@H]2[C@H](CC1)C2(C)C | > 19 | > 80 | – | – | Ratio IC50 [27]: 0.4; Ratio IC50 [28]: 0.4
